Patent US20240041708A1, “DEHYDRATED SOAP AND CLEANER TABLET COMPOSITION” (HAPPY GO LUCKY LLC, priority 2022, published 2024)
“Also recorded” adds a separate entry of the source.

Assays:
Candida albicans = settings: fungus Candida albicans; cited from earlier work
environmental microbes = assay: Rehydrated tablet stability testing (daily scent, clarity, particulates, pressure; pass/fail); settings: as preservative in Comparative Examples 3 and 4
Excerpt: The key goals for the present invention, given that it is intended to be used for bottles that will be refilled many times to reduce plastic waste, are for the rehydrated formula to: • (a) be stable once rehydrated, meaning that the solution would no discernible microbial growth over a multi-month period of time and would maintain its physical characteristics, and • (b) work within an acceptable manufacturing process (both physically and in terms of cost).
In terms of physical characteristics measured, once the test tablets had been rehydrated, several observables were tracked each day such as scent, clarity, presence of particulates and pressure.
Scent was measured by comparing the scent each day to the original scent of an initially rehydrated bottle. When microbial activity is present it can create compounds, which add a distinctly unpleasant odor to the compositions. 2 Given the sensitivity of the human nose to such compounds, this would be a clear aesthetic failure for the product even if overall microbial growth remained below a level that could be harmful or otherwise impact use.
Regarding clarity, initially rehydrated solutions are completely transparent. […]
Once the initial dissolution process is complete, a rehydrated solution should contain no free-floating particulates. The appearance of any particles within the solution was recorded and visually evaluated. […]

fungus and yeast = assay: Growth inhibition of fungus and yeast by IPBC; assay type: cell-based; settings: 100 ppm to 160 ppm
Excerpt: (§1) In Examples 1 and 2, the concentration of IPBC was in the 100 ppm to 160 ppm range. This range inhibits the growth of all three categories of microbes. An amount of 100 ppm is a minimum safe amount to inhibit most types of microbial growth.

[1] = at comparable concentrations; cited from earlier work
bacteria = assay: Inhibitory effect of IPBC against bacteria tested; assay type: cell-based
Excerpt: as §1

algae = settings: cited from earlier work
mold/mildew/yeast/fungi = settings: cited from earlier work

## O=C([O-])c1ccccc1.[Na+] [sodium benzoate, reference compound]
Candida albicans
  MIC: about 2500 ppm

## benzalkonium chloride [BKC]
Environmental microbes
  effectiveness in stability testing (preservation): somewhat effective; also recorded: better preservation than other non-IPBC-containing compositions tested

## iodopropynyl butylcarbamate [IPBC]
Candida albicans
  MIC: about 8 ppm
Fungus and yeast
  inhibition of growth of fungus and yeast: significantly inhibits
[1]
  comedogenicity: noncomedogenic
bacteria
  concentration with inhibitory effect against most bacteria tested: 100 ppm
algae
  minimum inhibitory concentration (MIC): ≤ 50 ppm
mold/mildew/yeast/fungi
  minimum inhibitory concentration (MIC): ≤ 10 ppm
